The test system of experiment [1] is rat peripheral blood neutrophils. The experiment is described as follows: Metabolic profile of nonsensitized rat peripheral blood neutrophils in vitro. Type of experiment: cell-based. The procedure: Materials and methods: Rat microglial cells were isolated by mechanical (cell sieves) disintegration of the brain tissue (FIG. 30A, FIG. 30B and FIG. 30C) followed by fractionation of the tissue homogenate in Percoll density gradient (Microglia: Methods and Protocols, Edited by Bertrand Josef and Jose Luis Venero, Springer protocol. Humana Press, 2013, 350 p.) (FIG. 31). Before the collection of the brain tissue, decapitation was performed to avoid hemorrhage to the brain during sampling (FIG. 32). Decapitation was performed immediately after anesthesia to minimize the death of brain tissue, including microglial cells. All manipulations for the isolation of microglial cells were carried out using coolants. Circulating neutrophils were isolated from venous blood taken into a tube containing EDTA in a two-step Percoll gradient (Alsharif K F et al. Vascul Pharmacol. 2015 August; 71:201-7. doi: 10.1016/j.vph.2015.02.006)(FIG. 33A and FIG. 33B). Circulating monocytes were isolated from venous blood collected into a tube containing heparin in a two-step Hypaque gradient (Macrophages and dendritic cells: Methods and Protocols, Edited by Neil E. Reiner, NY, Humana Press, 2009: 368 P). The metabolic profile of phagocytes was characterized based on the pathway of arginine metabolism (levels of arginase activity and NO synthesis measured using photocolorimetric methods), the level of formation of intracellular reactive oxygen species (ROS) by esterases and the indices of phagocytic activity determined by flow cytofluorimetry, as well as according to the activation levels of NADH and NADPH oxidases determined in NBT test. Duration of treatment of phagocytes of all the above mentioned populations varied depending on the methodological characteristics of metabolic response. A 90 minute exposure to the drugs according to Kim et al., 1977 (cited above) was used to analyze their effects on oxidative metabolism and phagocytic activity. An 18 hour exposure according to Lastra et al., 2001 (cited above) was used to analyze the drug effects on arginine metabolic pathway. To analyze the effects of the drugs under study on the induced (stimulated) metabolic activity of phagocytes, the cells were treated with lipopolysaccharide (LPS) from E. coli (Sigma, USA) according to Haddad et al., 2009 (cited above).

The test system of experiment [2] is peritoneal macrophages. Put plainly: Functional profile of peritoneal macrophages in 6-OHDA rat models after prophylactic administration. The class given is in vivo. To be noted: prophylactic i.p. On the procedure:
Methods: Adult mature rodents were used in the study. […] Before prophylactic administration of the experimental drugs, the animals underwent an open field test to assay their general locomotor activity levels and anxiety. The prophylactic course consisted of 10 daily intraperitoneal injections of the drugs (in the case of combination drug, its components were administered at an interval of 2 hours). After the end of prophylactic course, Parkinson's disease was modelled in the animals. […] Ten days after the last (second) apomorphine test, the animals' behavioral responses were assessed in the open field test followed by euthanasia and analysis of functional (metabolic and phenotypic) profiles of phagocytes of different localization. Thus, the study of the functional profile of phagocytes in rat models of Parkinson's disease was performed on day 28 after the end of the course of prophylactic treatment with the experimental drugs. Resident peritoneal macrophages were isolated from sterile cell suspension of peritoneal exudate; enrichment of the suspension was carried out by 2-hour adhesion. Non-adherent and dead cells were separated by centrifugation. Functional characteristics of circulating phagocytes (monocytes and neutrophils) were evaluated in whole blood taken into a tube containing EDTA used as an anticoagulant. Mononuclear and polymorphonuclear phagocytes were analyzed on a flow cytofluorimeter using a gating method. Phagocytes of microglia were isolated using a Percoll density gradient. To assess the phenotypic profile of phagocytes, expression indices of the pan-phagocytic marker CD14 (co-receptor of the bacterial lipopolysaccharide) and the marker of alternative polarization of phagocytes CD206 (mannose receptor 1) were used. To characterize the metabolic profile, oxidative metabolism and phagocytic activity of microglia as well as the pathway of arginine metabolism were studied using flow cytometry and spectrometric methods respectively. FITC-labeled Staphylococcus aureus Wood 46 was used as the object of phagocytosis. The hemogram parameters were analyzed on the hematological analyzer Particle counter model PCE 210 (ERMA, Japan) adapted for the study of blood cells of rats and mice.

Experiment [3] concerns peritoneal macrophages. The experiment is described as follows: Metabolic profile of nonsensitized mouse peritoneal macrophages in vitro. Details: spontaneous production of reactive nitrogen species by PM: dose or concentration left out as unconfirmed. Type of experiment: cell-based, mice of c57/B6 line. The procedure:
Materials and methods: Peritoneal macrophages (PM) were isolated from the peritoneal cavity of male mice of c57/B6 line with an average body weight of 22 g without previous sensibilization. The metabolic profile of phagocytes was characterized by the arginine metabolic pathway (by the levels of arginase activity and NO synthesis measured using photocolorimetric methods), the level of formation of intracellular reactive oxygen species (ROS) by esterases and phagocytic activity measured using flow cytometry as well as the levels of NADH and NADPH oxidase activation, as determined in the NBT test. Duration of treatment of a standardized suspension of nonsensitized macrophages from the peritoneal cavity varied depending on the methodological characteristics of metabolic response. A 90 minute exposure to the drugs according to Kim D K, Pfeifer J. Surg Forum. 1977; 28:85-7 was used to analyze their effects on oxidative metabolism and phagocytic activity. An 18 hour exposure according to Lastra M D, et al., J Trace Elem Med Biol. 2001; 15(1):5-10 was used to analyze the effects on arginine metabolic pathway. To analyze the effects of the drugs under study on the induced (stimulated) metabolic activity of phagocytes, the cells were treated with lipopolysaccharide (LPS) from E. coli (Sigma, USA) according to Haddad J J. Mol Immunol. 2009; 47(2-3):205-14. doi: 10.1016/j.molimm.2009.09.034.

Take “^64Zn-enriched zinc aspartate [^64Zne-asp]”: in experiment [1], the “arginase activity of resting and bacterial LPS-treated neutrophils” value is on record as “remained practically unchanged”; the “esterase-dependent oxidative metabolism in neutrophils treated with bacterial LPS” value is “sharp decrease”; the “intracellular ROS production by nonsensitized neutrophils” value is on record as “sharp decrease”; the “phagocytic activity of neutrophils” value was “No statistically significant effect”. Also, in experiment [1], the “synthesis of reactive nitrogen species by neutrophils after treatment with LPS” value is “moderately negative effect” and the “synthesis of reactive nitrogen species by resting neutrophils” value was “no significant effect”. Besides, the “ROS production dependent on NADH and NADPH oxidases (NBT test) in neutrophils” value in experiment [1] (irrespective of treatment with bacterial LPS) is “strong negative effect”. In the experiment on peritoneal macrophages [2], the “CD206 expression level in CD14+ peritoneal phagocytes” value is on record as “further decrease”, the “NO synthesis by peritoneal macrophages” value is on record as “prevented an increase”, the “arginase activity of peritoneal macrophages” value is recorded as “absence of any changes” and the “phagocytosis by peritoneal macrophages” value is on record as “prevented an increase”. For the same substance, the “NO synthesis by peritoneal macrophages” value in the experiment with peritoneal macrophages [2] (listed as zinc-based drug) is “decrease”. Further, the “ROS generation compared with LPS treatment” value with peritoneal macrophages [3] (10 μg/ml, 90 min) is recorded as “more expressive stimulation”. Besides, in the experiment on peritoneal macrophages [3] (18-hour exposure), the “NO synthesis by bacterial LPS-stimulated PM” value is “statistically significant reduction” and the “spontaneous production of reactive nitrogen species by PM” value is reported as “statistically significant inhibition”. Moreover, in the experiment on peritoneal macrophages [3] (18-hour treatment), the “arginase activity of PM” value is recorded as “multidirectional weak effect”. The “phagocytic activity of nonsensitized PM” value in the experiment with peritoneal macrophages [3] (90 min exposure) is on record as “did not have a significant effect”. In the experiment with peritoneal macrophages [3] (90 min treatment), the “spontaneous and LPS-stimulated ROS production by macrophages” value is given as “moderate stimulating effect”; the “spontaneous or induced activation of NADH and NADPH oxidases (NBT test)” value is listed as “did not have a statistically significant effect”.

These data come from US11779597B2, “Method of treating Parkinson's and other neurodegenerative diseases” (Vector Vitale IP LLC, priority 2019, dated 2023).
